Type in all cases: cell-based
Test [1] relates to S. uberis ATCC 19436. Briefly: MIC by broth microdilution, S. uberis. Particulars: Streptococcus uberis. Summed up: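 The MIC against S. uberis ATCC 19436 was the lowest compound concentration showing no growth by OD600 after 24 h at 37° C. with 200 rpm shaking. Cultures grown overnight were adjusted to OD600 ~0.025 so wells held approximately 5×10^5 cfu/mL in THB. Two-fold dilution series were made at a final volume of 200 μl. Media and untreated controls were run in triplicate on each plate.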

The subject of test [2] is S. aureus ATCC 6538. Briefly: MIC by broth microdilution, S. aureus. The note with it: Staphylococcus aureus. Summed up: (§1)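 Overnight cultures diluted to ~5×10^5 cfu/mL final; S. aureus in TSB and CAMHB, E. coli in LB and CAMHB, zinc sulphate to 50 μM final as required; two-fold serial dilutions. MIC = lowest concentration with no growth by OD600 after 24 h, 37° C, 200 rpm. MBC by Miles-Misra drop-plate viability count.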
On the technique in general: In broth dilution the organism is exposed to a series of concentrations in liquid medium.

Test [3] concerns E. coli ATCC 10596. Description: MIC by broth microdilution, E. coli. The note with it: Escherichia coli. Summed up:
as §1

The subject of test [4] is S. uberis ATCC 19436. Description: MBC by Miles-Misra drop-plate method, S. uberis. Particulars: Streptococcus uberis. The method, then:
(§2) Antibacterial susceptibility testing was performed in triplicate (biological) by measuring minimum inhibitory concentrations (MICs) by broth microdilution in 96-well flat bottom microtiter plates (ThermoFisher Scientific, New Zealand). S. uberis ATCC 19436, S. aureus ATCC 6538, or E. coli ATCC 10596 cells grown overnight were diluted to an OD600 of approximately 0.025, so that the final concentration of cells in the MIC assay was approximately 5×10^5 cfu/mL in media as follows: S. uberis; Todd Hewitt Broth (THB), S. aureus; Tryptic Soy Broth (TSB) and Cation Adjusted Muller Hinton Broth (CAMHB), and E. coli; Lysogeny Borth (LB) and CAMHB, before being dispensed into microtiter wells. As required additional sterile Zinc Sulphate (Heptahydrate) was supplemented into the media, so the final concentration was 50 μM. Test compounds were added to starting wells and two-fold serial dilutions were undertaken to generate a range of inhibitor concentrations at a final volume of 200 μl. Media and test compound-free (untreated) controls were included in each microtiter plate in triplicate. After 24 h incubation at 37° C. and 200 rpm, the OD600 of wells were read using a Varioskan Flash plate reader (ThermoFisher Scientific, New Zealand). The MIC was reported as the lowest concentration of the test compound for which no growth occurred, as determined by OD600 readings. The minimum bactericidal concentration (MBC) was determined using the Miles-Misra drop-plate method to measure the viability of cells in response to test compound challenge.

For test [5], the system named is S. aureus ATCC 6538. Description: MBC by Miles-Misra drop-plate method, S. aureus. The note with it: Staphylococcus aureus. The method, then:
as §2

Test [6] concerns E. coli ATCC 10536. Briefly: MBC by Miles-Misra drop-plate method, E. coli. The note with it: Escherichia coli. On the procedure: as §2
Setting [7] is: ATCC19436, No Zinc, read-out: S. uberis ATCC 19436 MIC.
Where [8] appears, read: ATCC19436, Zinc (50 μM), read-out: S. uberis ATCC 19436 MIC.
Setting [9] is: ATCC6538, No Zinc, read-out: S. aureus ATCC 6538 MIC.
Where [10] appears, read: ATCC6538, Zinc (50 μM), read-out: S. aureus ATCC 6538 MIC.
[11] abbreviates: ATCC 10536 / ATCC 10596, No Zinc, read-out: E. coli ATCC 10536 MIC.
Setting [12] is: ATCC 10536 / ATCC 10596, Zinc (50 μM), read-out: E. coli ATCC 10536 MIC.
[13] abbreviates: ATCC19436, No Zinc, read-out: S. uberis ATCC 19436 MBC.
The mark [14] stands for this setting: ATCC19436, Zinc (50 μM), read-out: S. uberis ATCC 19436 MBC.
The mark [15] stands for this setting: ATCC6538, No Zinc, read-out: S. aureus ATCC 6538 MBC.
Where [16] appears, read: ATCC6538, Zinc (50 μM), read-out: S. aureus ATCC 6538 MBC.
The mark [17] stands for this setting: ATCC10536, No Zinc, read-out: E. coli ATCC 10536 MBC.
The mark [18] stands for this setting: ATCC10536, Zinc (50 μM), read-out: E. coli ATCC 10536 MBC.

Converted amounts (≈) assume the structure as drawn. Like-named read-outs stand apart in the source and are kept apart here.

As for `N/N=C/c1ccc2cccc(NS(=O)(=O)c3ccc(C(F)(F)F)cc3)c2n1` [ZDR127, (E)-N-(2-(Hydrazineylidenemethyl)quinolin-8-yl)-4-(trifluoromethyl)benzenesulfonamide], the MIC in test [1] (setting [7]) was above 256 µg/mL; in test [1] (setting [8]), 1 µg/mL (≈ 2.54 µM); in test [2] (setting [9]), 16 µg/mL (≈ 40.6 µM); in test [2] (setting [10]), 16 µg/mL (≈ 40.6 µM); in test [3] (setting [11]), above 256 µg/mL; in test [3] (setting [12]), above 256 µg/mL. For the same compound, the MBC in test [4] (setting [13]) is above 256 µg/mL; in test [4] (setting [14]), 2 µg/mL (≈ 5.07 µM); in test [5] (setting [15]), above 256 µg/mL; in test [5] (setting [16]), above 256 µg/mL; in test [6] (setting [17]), above 256 µg/mL; in test [6] (setting [18]) it was above 256 µg/mL.

`N=C(N)NCCNCc1ccc2cccc(NS(=O)(=O)c3ccc(C(F)(F)F)cc3)c2n1` [ZDR143, N-(2-(((2-Guanidinoethyl)amino)methyl)quinolin-8-yl)-4-(trifluoromethyl)benzenesulfonamide di-trifluoroacetate]: the MIC stood at 8 µg/mL (≈ 17.1 µM) in test [1] (ATCC19436, read-out: S. uberis ATCC 19436 MIC, No Zinc); 4 µg/mL (≈ 8.57 µM) in test [1] (ATCC19436, read-out: S. uberis ATCC 19436 MIC, Zinc (50 μM)); 8 µg/mL (≈ 17.1 µM) in test [2] (ATCC6538, read-out: S. aureus ATCC 6538 MIC, No Zinc); 8 µg/mL (≈ 17.1 µM) in test [2] (ATCC6538, read-out: S. aureus ATCC 6538 MIC, Zinc (50 μM)); 16 µg/mL (≈ 34.3 µM) in test [3] (ATCC 10536 / ATCC 10596, read-out: E. coli ATCC 10536 MIC, No Zinc); 16 µg/mL (≈ 34.3 µM) in test [3] (ATCC 10536 / ATCC 10596, read-out: E. coli ATCC 10536 MIC, Zinc (50 μM)). For the same compound, the minimal bactericidal concentration (MBC) in test [4] (ATCC19436, read-out: S. uberis ATCC 19436 MBC, No Zinc) is 8 µg/mL (≈ 17.1 µM); in test [4] (ATCC19436, read-out: S. uberis ATCC 19436 MBC, Zinc (50 μM)), 8 µg/mL (≈ 17.1 µM); in test [5] (ATCC6538, read-out: S. aureus ATCC 6538 MBC, No Zinc), 16 µg/mL (≈ 34.3 µM); in test [5] (ATCC6538, read-out: S. aureus ATCC 6538 MBC, Zinc (50 μM)) it was 16 µg/mL (≈ 34.3 µM); in test [6] (ATCC10536, read-out: E. coli ATCC 10536 MBC, No Zinc) it was 32 µg/mL (≈ 68.6 µM); in test [6] (ATCC10536, read-out: E. coli ATCC 10536 MBC, Zinc (50 μM)), 32 µg/mL (≈ 68.6 µM).

In the case of `O=S(=O)(Nc1cccc2ccc(CNc3cc(Cl)cc(Cl)c3O)nc12)c1ccc(C(F)(F)F)cc1` [ZDR167, N-(2-(((3,5-Dichloro-2-hydroxyphenyl)amino)methyl)quinolin-8-yl)-4-(trifluoromethyl)benzenesulfonamide], the MIC in test [1] (setting [7]) was 2 µg/mL (≈ 3.69 µM); in test [1] (setting [8]) it was 0.5 µg/mL (≈ 0.922 µM); in test [2] (setting [9]) it was 2 µg/mL (≈ 3.69 µM); in test [2] (setting [10]), 2 µg/mL (≈ 3.69 µM); in test [3] (setting [11]) it was above 256 µg/mL; in test [3] (setting [12]) it was above 256 µg/mL. The MBC in test [4] (setting [13]) was 8 µg/mL (≈ 14.8 µM); in test [4] (setting [14]) it was 0.5 µg/mL (≈ 0.922 µM); in test [5] (setting [15]), 8 µg/mL (≈ 14.8 µM); in test [5] (setting [16]) it was 8 µg/mL (≈ 14.8 µM); in test [6] (setting [17]), above 256 µg/mL; in test [6] (setting [18]), above 256 µg/mL.

`O=[N+]([O-])c1ccc(O)c(NCc2ccc3cccc(NS(=O)(=O)c4ccc(C(F)(F)F)cc4)c3n2)c1` [ZDR170, N-(2-(((2-Hydroxy-5-nitrophenyl)amino)methyl)quinolin-8-yl)-4-(trifluoromethyl)benzenesulfonamide]: the MIC in test [1] (setting [7]) is 8 µg/mL (≈ 15.4 µM); in test [1] (setting [8]) it was 1 µg/mL (≈ 1.93 µM); in test [2] (setting [9]), 8 µg/mL (≈ 15.4 µM); in test [2] (setting [10]), 4 µg/mL (≈ 7.71 µM); in test [3] (setting [11]), 256 µg/mL (≈ 494 µM); in test [3] (setting [12]), 256 µg/mL (≈ 494 µM). Besides, the minimal bactericidal concentration (MBC) in test [4] (setting [13]) was 16 µg/mL (≈ 30.9 µM); in test [4] (setting [14]) it was 2 µg/mL (≈ 3.86 µM); in test [5] (setting [15]), 128 µg/mL (≈ 247 µM); in test [5] (setting [16]) it was 128 µg/mL (≈ 247 µM); in test [6] (setting [17]), above 256 µg/mL; in test [6] (setting [18]), above 256 µg/mL.

A word on the MIC: it is the smallest concentration in the dilution series that meets the test's criterion for growth inhibition. What is called MBC is the lowest tested concentration that kills the bacteria rather than only halting them.

(Values after patent US11691949B2, “Quinoline sulfonamide compounds and their use as antibacterial agents” (OTAGO INNOVATION LIMITED, priority 2017, dated 2023).)
